From US10722484B2, “Methods of cancer treatment” (K-Gen, Inc., priority 2016, dated 2020)

Tests used:
[1] = test system: Mino (Mantle cell lymphoma); assay: Combination viability/proliferation assays; conditions: Mino; K101A (0.1 μM) or K102 (0.001 μM); especially below 0.1 μM cytarabine
Procedure: (§2) Briefly, cells at density of 1,000-10,000 cells/well in 96-well plates or 200-1600 cells/well in 384-well plates were seeded and incubated at 37° C. for 24 hours before addition of compounds. A series of 9 different concentrations of compound stocks (500×) were prepared by 3-fold serial dilutions in DMSO. […] After 96 hours of incubation, 35 μL or 50 μL of CellTiter Glo reagent (Promega) was added to each well and luminescence was measured after 10 minutes using EnVision (PerkinElmer). Luminescence from cells treated with DMSO alone was set as Max and % of inhibition was calculated as follows: Inhibition %=(Max-Sample value)/Max*100. Data were analyzed using XLfit software (ID Business Solutions Ltd.) or GraphPad software and IC50, relative IC50, and % of top inhibition were calculated.
Various drugs or compounds (Table 10) were screened and assayed in 384-well plates as 9-point 3-fold dilution series alone and in combination with 2-3 doses of the specified PKC activator compounds (e.g., K101A, K101E, and K102). The top concentration for the tested PKC activator compound was set at roughly the IC50 when the same testing compound was used as a single agent assayed in the same cell line. The next dose was either 3-fold or 10-fold dilution from the top concentration.
The PKC activating agents (e.g., K101A, K101E, and K102) in combination with other chemotherapeutic agents, including standard chemotherapies and certain chemotherapeutic agents targeting certain cell signaling pathways, were also examined on cancer cells other than lung cancer cells.

[2] = test system: THP-1 human acute monocytic leukemia cells; assay: Combination viability/proliferation assays; conditions: K101A (0.3 μM) and K102 (0.005 μM)
Procedure: as §2
(§3) The top concentration for the tested PKC activator compound was set at roughly the IC50 when the same testing compound was used as a single agent assayed in the same cell line. The next dose was either 3-fold or 10-fold dilution from the top concentration.

[3] = test system: HL-60 human promyelocytic leukemia cells; assay: Combination viability/proliferation assays
Procedure: as §2, §3

[4] = test system: MV-4-11 human myelomonocytic leukemia; assay: Combination viability/proliferation assays; conditions: K101A (0.1 μM) or K102 (0.01 μM)
Procedure: as §2, §3

[5] = test system: A549 lung cancer cell line; assay: Combination viability/proliferation assays (384-well IC50 ratio, 96-well MacSynergy II); type: cell-based
Panc1 = assay: Combination viability/proliferation assays; type: cell-based; conditions: for Combination effect, Panel: K102: agent in combination with K102
Procedure: (§1) A 96-well MacSynergy II format for combination test was also used. […] The analysis was done with the SQRT(Data) scale and the four parameter Hill curve was fitted using XLfit5.1 (the MacSynergy II Excel Spreadsheet) for the inhibition data. Synergy (positive number) or Antagonism (negative number) volumes were calculated. […] Three-dimensional MacSynergy II graphs were generated where positive values indicated synergism and negative values indicated antagonism.

Panc2.13 = assay: Combination viability/proliferation assays; type: cell-based
Procedure: as §1

[6] = test system: colon cancer cell line Colo205; assay: MacSynergy combination experiments; type: cell-based
Procedure: as §1

Nc1ccn([C@@H]2O[C@H](CO)[C@@H](O)[C@@H]2O)c(=O)n1 [Cytarabine]
effect in combination with K101A or K102 [1]: synergistic anti-proliferative effect
effect in combination with K101A and K102 [2]: synergy
effect in combination with K101A and K102 [3]: strong synergy
shift of the inhibition curve to the left ([3]; in combination with K101A (0.3 μM)): half-log
shift of the inhibition curve to the left ([3]; in combination with K102 (0.005 μM)): full-log

CC1=C(/C=C/C(C)=C/C=C/C(C)=C/C(=O)O)C(C)(C)CCC1 [ATRA, all-trans-retinoic acid]
effect in combination with K101A and K102 [3]: strong synergy
shift of the inhibition curve up ([3]; addition of K101A (0.3 μM) or K102 (0.005 μM), after subtracting inhibition by K101A or K102 alone): 5-40%
shift of the inhibition curve up [4]: 5-20%

N.N.[Cl][Pt][Cl] [Cisplatin]
dose range for the strongest synergy ([5]; A549, cisplatin combined with PKC activator compounds (FIG. 6A)): 0.625 to 2.5 µM
Ratio ([…] DMSO IC50/combination IC50) ([5]; A549, in combination with 0.005 μM K101A, NC: no change): 0.53
Ratio ([…] DMSO IC50/combination IC50) ([5]; A549, in combination with 0.04 μM K102 (footnote, Cisplatin)): 2.61
Ratio ([…] DMSO IC50/combination IC50) ([5]; A549, in combination with 0.05 μM K101A, NC: no change): 0.86
Ratio ([…] DMSO IC50/combination IC50) ([5]; A549, in combination with 0.13 μM K102 (footnote, Cisplatin)): 2.52
Ratio ([…] DMSO IC50/combination IC50) ([5]; A549, in combination with 0.5 μM K101A, ratio >2 synergistic, <0.5 antagonistic, NC: no change): 2.68
Ratio ([…] DMSO IC50/combination IC50) ([5]; A549, in combination with 1 μM K101E (footnote, Cisplatin)): 1.37
Ratio ([…] DMSO IC50/combination IC50) ([5]; A549, in combination with 3 μM K101E (footnote, Cisplatin)): 1.75
synergy at cisplatin dose levels higher than […] ([5]; A549, with PKC activator compounds): minimal synergy
effect in combination with the PKC activator compounds in inhibiting the growth of A549 cells ([5]; PKC activator compounds (K101A, K101E, K102)): strong synergistic effect
Combination in A549: K101A (synergism/antagonism) ([5]; agent assayed in combination with K101A, A549, * 2-3 concentrations, # full concentration ranges): Synergism (strong)
Combination in A549: K101E (synergism/antagonism) ([5]; agent assayed in combination with K101E, A549): None
Combination in A549: K102 (synergism/antagonism) ([5]; agent assayed in combination with K102, A549, * 2-3 concentrations, # full concentration ranges): Synergism (strong)
effect at highest concentrations of combination agents (Panc1; Panc1, with K101A or K102): Slight antagonism
Combination effect, Panel: K102 (Panc1): None
Combination effect, Panel: K102 (Panc1; listed as cisplatin): not
effect in combination with K101A (Panc2.13; Panc2.13, K101A at 1 μM or at 0.67 μM): strong synergy
Combination effect, Panc2.13: K101A (Panc2.13; agent in combination with K101A): Synergism
synergy volume (MacSynergy) ([6]; Colo205, in combination with K101A (column not headed)): 49
synergy volume (MacSynergy) ([6]; Colo205, in combination with K102 (column not headed)): 41
